Measurements published in publication PMC7925462, “A synthetic peptide as an allosteric inhibitor of human arginase I and II” (Molecular Biology Reports, 2021).
Like-named read-outs stand apart in the source and are kept apart here. Values belong to the molecule of their own block, whether it stands above or below them. Ends that are not written are not given here.

Columns and labels:
[1] = target: T1, human arginase I (wild-type hargI, His6-tagged) (Homo sapiens, UniProt P05089); assay: MST binding assay, hargI
T1 construct: TEV protease site and linker (N); made in house; host or cells: E. coli BL21 (DE3) RIL
T1 sequence (P05089 with tags, fused parts or gaps): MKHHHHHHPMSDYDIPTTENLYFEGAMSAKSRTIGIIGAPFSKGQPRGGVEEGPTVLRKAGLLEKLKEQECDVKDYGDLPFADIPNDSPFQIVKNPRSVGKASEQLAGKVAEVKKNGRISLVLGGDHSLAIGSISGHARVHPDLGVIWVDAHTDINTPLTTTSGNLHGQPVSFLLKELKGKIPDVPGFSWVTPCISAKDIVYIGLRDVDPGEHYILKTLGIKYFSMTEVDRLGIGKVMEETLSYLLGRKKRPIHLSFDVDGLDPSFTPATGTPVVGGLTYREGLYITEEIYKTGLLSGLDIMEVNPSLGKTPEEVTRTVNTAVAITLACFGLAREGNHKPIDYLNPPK
Method: Microscale thermophoresis (MST)
MST measurements were performed on a Monolith NT.115 instrument (Nanotemper Technologies, GmbH). Purified His6-tagged hargI sample was labeled with the Monolith His-Tag Labeling Kit RED-tris-NTA (MO-L008) according to the protocol (Nanotemper Technologies, GmbH). All measurements were performed in triplicate in MST buffer (25 mM Tris-HCl pH 7.5, 125 mM NaCl, 1% Glycerol and 1 mM BME, 0.05% Tween-20) using standard capillaries (K002, Nanotemper Technologies, GmbH). Labeled hargI was used at a final concentration of 50 nM according to the manufacturer’s recommendations. All measurements were performed at 60% LED excitation power and 40% MST power, Laser-On time was 30 s, Laser-Off time 5 s. The peptide REGNH was titrated in 1:1 dilution starting at 2.82 μM. All binding reactions were incubated for 10 min at room temperature followed by centrifugation at 20,000 g before loading into the capillaries.
The ability of the synthetic peptide analogue (REGNH) to bind to wild-type hargI and II was examined using Microscale Thermophoresis (MST) (Nanotemper, GmbH). […] After 10 min incubation at room temperature the dose-response MST curve was measured, which yielded a clear binding curve with determined dissociation constant of 177 ± 50 μM for hargI, and 196 ± 25 μM for hargII (Fig. 2).

human arginase I (hargI) [2] = target: T2, human arginase I (hargI) (Homo sapiens, UniProt P05089); assay: Dose-response of ABH on hargI in presence/absence of REGNH, L-arginine metabolism; format: biochemical
T2 construct: TEV protease site and linker (N); made in house; host or cells: E. coli BL21 (DE3) RIL
T2 sequence (P05089 with tags, fused parts or gaps): T1 sequence (P05089 with tags, fused parts or gaps)
Method: The Arginases activity was assessed by colorimetric measurement of produced urea. The assays were performed in 96-well plates (Greiner) using Assay buffer [100 mM Na-phosphate pH 7.4, 130 mM NaCl]. Final volume of each reaction was 60 μl, the final concentration of hargI and hargII was 50 nM in each well. Samples containing no hargI or hargII were used as negative control. The peptide inhibitor was added based on experiment setting, dose ranging from 20 mM to 9.8 μM. Each sample was pre-incubated for 30 min in a 37 °C shaking incubator (100 rpm) and the reactions were started by adding concentrated substrate buffer [Assay buffer supplemented with 100 mM L-arginine, 500 mM Glycine and 1.25 mM MnCl2]. Reactions were performed in a shaking incubator at 37 °C and quenched after 1 h using a Stop mix. The Stop mix consisted of two volumes of freshly prepared solution A [Antipyrine/ H2SO4 reagent: 5 g/L of antipyrine(1,5-dimethyl-2-phenyl-3-pyrazolone) in 50%(v/v) sulfuric acid] and one volume solution B [Oxime reagent: 0.8 g 2,3-Butanedione monoxime in 100 ml of 5%(v/v) acetic acid]. […] The color turns to brown and changes in optical density (OD) at 466 nm reflecting the production of urea were quantified using the Synergy H1 Hybrid Reader (BioTek).

[3] = target: T3, human arginase II (hargII) (Homo sapiens, UniProt P78540); assay: Enzymatic assay, L-arginine hydrolysis by hargII, colorimetric urea; format: biochemical; details: called preliminary data, read-out: IC50 (abstract)
T3 construct: The human arginase II (aa23-354, 38.3kD) fused to a His6-tag at the N-terminal; purchased USBiological Life Science, Salem, USA
T3 sequence (P78540 23-354): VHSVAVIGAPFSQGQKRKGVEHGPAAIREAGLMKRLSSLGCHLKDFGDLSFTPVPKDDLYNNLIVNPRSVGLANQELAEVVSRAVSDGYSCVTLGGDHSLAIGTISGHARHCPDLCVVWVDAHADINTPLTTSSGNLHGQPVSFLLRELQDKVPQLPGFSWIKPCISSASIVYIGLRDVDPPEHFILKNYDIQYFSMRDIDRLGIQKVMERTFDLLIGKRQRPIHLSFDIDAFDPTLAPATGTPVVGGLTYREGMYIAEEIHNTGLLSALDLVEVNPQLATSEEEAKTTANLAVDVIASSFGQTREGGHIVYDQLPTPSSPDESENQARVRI
Method: The human arginase II (aa23-354, 38.3kD) fused to a His6-tag at the N-terminal was purchased and supplied as a liquid aliquot (20 mM Tris-HCl, pH 8.0, 10% (v/v) glycerol) at −20 °C (USBiological Life Science, Salem, USA). This stock was thaw on ice, followed by high speed centrifuging before diluting to certain concentration for activity assay.
(§1) The kinetic properties of hargI and II were tested according to previously reported methods with minor modifications. The Arginases activity was assessed by colorimetric measurement of produced urea. The assays were performed in 96-well plates (Greiner) using Assay buffer [100 mM Na-phosphate pH 7.4, 130 mM NaCl]. Final volume of each reaction was 60 μl, the final concentration of hargI and hargII was 50 nM in each well. Samples containing no hargI or hargII were used as negative control. The peptide inhibitor was added based on experiment setting, dose ranging from 20 mM to 9.8 μM. Each sample was pre-incubated for 30 min in a 37 °C shaking incubator (100 rpm) and the reactions were started by adding concentrated substrate buffer [Assay buffer supplemented with 100 mM L-arginine, 500 mM Glycine and 1.25 mM MnCl2]. […] The color turns to brown and changes in optical density (OD) at 466 nm reflecting the production of urea were quantified using the Synergy H1 Hybrid Reader (BioTek).

human arginase I (hargI) [4] = target: T2, human arginase I (hargI); assay: Enzymatic assay, L-arginine hydrolysis by hargI, colorimetric urea; format: biochemical; details: called preliminary data, read-out: IC50 (abstract)
Method: as §1, with “MnCl2]. Reactions were performed in a shaking incubator at 37 °C and quenched after 1 h using a Stop mix. The Stop mix consisted of two volumes of freshly prepared solution A [Antipyrine/ H2SO4 reagent: 5 g/L of antipyrine(1,5-dimethyl-2-phenyl-3-pyrazolone) in 50%(v/v) sulfuric acid] and one volume solution B [Oxime reagent: 0.8 g 2,3-Butanedione monoxime in 100 ml of 5%(v/v) acetic acid].” for “MnCl2].”

human arginase I (hargI) [5] = target: T2, human arginase I (hargI); assay: Kinetic assay of L-arginine metabolism in absence/presence of peptide; format: biochemical; details: 1 mM peptide REGNH, 40 mM L-arginine
Method: as §1, with “MnCl2]. Reactions were performed in a shaking incubator at 37 °C and quenched after 1 h using a Stop mix. The Stop mix consisted of two volumes of freshly prepared solution A [Antipyrine/ H2SO4 reagent: 5 g/L of antipyrine(1,5-dimethyl-2-phenyl-3-pyrazolone) in 50%(v/v) sulfuric acid] and one volume solution B [Oxime reagent: 0.8 g 2,3-Butanedione monoxime in 100 ml of 5%(v/v) acetic acid].” for “MnCl2].”, “(BioTek). […]” for “(BioTek).”

[6] = test system: wild-type and truncated (terminating at Arg308 or Ala308) arginase I; details: wild-type and truncated species terminating at Arg308 or Ala308, even at higher concentrations; ref [17]; cited from earlier work
From the text: (§2) A promising avenue in arginase inhibitors research is a structural feature that shared by all mammalian arginases – the S-shaped motif at the C-terminal. The functional significance of this motif is that it accounts for 54% of intersubunit contacts. In Human Arginase I (hargI) the S-shaped motif is comprised by residues 304–322, where Arg308 is thought to play the major role, as it forms a salt bridge with Glu262. In rat liver arginase I, Arg308 also forms an intermonomer salt bridge with Asp204 from an adjacent subunit. The importance of Arg308 is supported by the di ...

[7] = test system: Arg308Ala mutant of human arginase I; details: low concentrations of guanidinium chloride, ref [17], cited from earlier work
From the text: as §2, with “... || The aim of the described research is to examine the effect of the peptide analogue REGNH (residue 308–312), which comprises part of the S-shape motif from the C-terminal (residue 308–322) on hargI. A previous study has shown that the C terminal tail plays a critical role in retaining trimeric protein assembly, as well as in the cooperative response of arginase in L-arginine metabolism.” for “...”

human arginase I [8] = target: T4, human arginase I (human, UniProt P05089 1-322, RED-tris-NTA dye on the His6-tag (Monolith His-Tag Labeling Kit RED-tris-NTA) in the MST assay); assay: MST; Monolith NT.115; His6-tagged arginase labeled with RED-tris-NTA at 50 nM, peptide REGNH titrated in 1:1 dilution; 25 mM Tris-HCl pH 7.5, 125 mM NaCl, 1% glycerol, 1 mM BME, 0.05% Tween-20; 10 min incubation at room temperature; triplicate; details: both partners purified
T4 construct: human arginase I, full-length gene amplified from a commercial template plasmid (dnasu.org), cloned in pETM11; His6-tag and TEV protease site at the N-terminus; A TEV protease site lies between the His6-tag and the protein; no cleavage is described; also called hargI; hArg1; source: E. coli BL21 (DE3) RIL, purified (Ni-NTA, SEC); not shown: His6, N-terminal, kept
T4 sequence (looked up): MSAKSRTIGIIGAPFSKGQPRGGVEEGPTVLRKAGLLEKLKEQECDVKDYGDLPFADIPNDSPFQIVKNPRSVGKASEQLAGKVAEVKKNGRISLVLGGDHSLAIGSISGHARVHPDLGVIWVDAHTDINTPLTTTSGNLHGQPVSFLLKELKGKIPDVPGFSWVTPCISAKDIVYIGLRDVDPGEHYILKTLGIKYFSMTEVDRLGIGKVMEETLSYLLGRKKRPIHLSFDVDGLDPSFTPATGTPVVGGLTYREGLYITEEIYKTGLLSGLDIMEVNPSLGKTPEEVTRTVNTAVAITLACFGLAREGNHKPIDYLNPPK

[9] = target: T5, human arginase II (aa23-354, 38.3kD) (human, UniProt P78540 23-354, RED-tris-NTA dye labeled in the MST assay); assay: as above; details: both partners purified
T5 construct: human arginase II, aa23-354, 38.3kD, fused to a His6-tag at the N-terminal; also called hargII; source: bought: USBiological Life Science, Salem, USA; not shown: His6, N-terminal, kept
T5 sequence (looked up): T3 sequence (P78540 23-354)

human arginase I [10] = target: T4, human arginase I; assay: cell-based or functional assay
[11] = target: T5, human arginase II (aa23-354, 38.3kD); assay: cell-based or functional assay

Molecule: N[C@@H](CCCCB(O)O)C(=O)O [ABH, 2-(S)-amino-6-boronohexanoic acid]
Kd ([1]; MST, ABH to hargI, MST buffer pH 7.5): ~600 nM
binding to hargI ([1]; dose-dependent MST assay): strong binding
IC50 (human arginase I (hargI) [2]; ABH on hargI, printed in parentheses after 'those of the apo-enzyme', the comparison is with hargI + 1 mM REGNH): 1000 ± 30 nM
inhibition of hargI by ABH in presence of REGNH compared with apo-enzyme (human arginase I (hargI) [2]; hargI supplemented with 1 mM peptide REGNH): comparable inhibition constants to those of the apo-enzyme

Molecule: Cl.N=C(N)N [guanidinium chloride]
response of wild-type and truncated species to Gdn+ [6]: not responsive
activity of Arg308Ala mutant with Gdn+ [7]: significantly increased activity
trimeric assembly and substrate cooperativity of Arg308Ala mutant with Gdn+ [7]: restored the trimeric assembly and substrate cooperativity
activity of Arg308Ala mutant with Gdn+ ([7]; listed as Gdn^+): significantly increased

Continued, values first:

IC50 [3]: 1.8 ± 0.1 mM
IC50 (human arginase I (hargI) [4]): 2.4 ± 0.3 mM
lowering of activity with respect to apo-enzyme (human arginase I (hargI) [5]): ≈ 15%
Molecule: REGNH [REGNH]

Kd (human arginase I [8]): 177 ± 50 µM
Kd [9]: 196 ± 25 µM
inhibition of hargI enzymatic activity (colorimetric measurement of urea from L-arginine), peptide 9.8 μM to 20 mM; IC50 (human arginase I [10]): 2.4 mM
inhibition of hargII enzymatic activity (colorimetric measurement of urea from L-arginine), peptide 9.8 μM to 20 mM; IC50 [11]: 1.8 mM
B1: synthetic peptide REGNH (peptide)
peptide: REGNH
notes: residues 308-312 of human arginase I, part of the S-shape motif of the C-terminal; Nothing is said of modified ends; also called peptide analogue; REGNH C-terminus analogue peptide; source: synthetic peptide; bought: Biomatik and TopPeptides, Shanghai
